Data: US20240174744A1, “METHODS OF TREATMENT USING PROTEIN BINDERS TO IRHOM2 EPITOPES” (SCIRHOM GMBH, priority 2021, published 2024)

System: LPS-induced release of TNFα from PBMCs from patients suffering from rheumatoid arthritis
Assay: ELISA-based TNFα release assay, PBMCs from RA-patients
Type: cell-based
Details: Homo sapiens, PBMC; chimeric antibodies (CHO) 1 μg/ml; Batimastat 10 μM; LPS 1 ng/ml, 1.5 hours
Experimental: In contrast to Example 32, where the inhibitory effects of the antibodies of the present disclosure on LPS-induced release of endogenous TNFα from primary human material obtained from healthy donors using peripheral blood mononuclear cells (PBMCs) were tested, this analysis was conducted to analyze the inhibitory effects of the antibodies of the present disclosure on LPS-induced release of endogenous TNFα from primary human material obtained from patients suffering from rheumatoid arthritis (RA-patients).
In brief, on day 1, Nunc black MaxiSorp® 96-well plates (Thermo Fisher Scientific, USA) were coated overnight with 100 μl per well of mouse anti-human TNFα capture antibody (provided as part of the DuoSet ELISA kit) at 4 μg/ml TBS at 4° C. On day 2, the capture antibody solution was removed and MaxiSorp® plates were blocked with 300 μl per well of TBS, 1% BSA at room temperature for 3 hours. […] Using an infinite M1000 (Tecan Group, Switzerland) microplate reader, the fluorescence of each well was collected at an excitation wavelength of 435 nm and an emission wavelength of 555 nm.

With `CNC(=O)[C@H](Cc1ccccc1)NC(=O)[C@H](CC(C)C)[C@H](CSc1cccs1)C(=O)NO` [Batimastat] the inhibition at 10 µM was 99.9%.
